{"source": "patent US20160287497A1", "about": "“USE AS A DEODORANT AGENT OF A SALIFIED SALICYLIC ACID DERIVATIVE, ALONE OR IN A MIXTURE” (L'OREAL, priority 2013, published 2016)", "key": {"[1]": {"assay": "Anti-odor effect: ex-vivo olfactory evaluation test on incubated sweat", "description": "The deodorant activity was evaluated in the ex-vivo olfactory evaluation test, on incubated sweat.\nEach compound under evaluation was introduced at a rate of 0.3 mg into 1 mL of sweat. The compounds under evaluation were weighed in 25 or 30 mL pill bottles and 1 mL from a pool of fresh sweat was then added. The pill bottles were hermetically sealed and placed in an incubator at 35° C. for 24 hours. After being removed from the incubator, the pill bottles were opened and allowed to cool to ambient temperature.\nA panel of sixteen people performed an olfactory analysis of each pill bottle. The efficacy of each compound evaluated was determined in comparison to a negative control (incubated sweat alone)."}, "Corynebacterium xerosis": {"system": "Corynebacterium xerosis", "assay": "Effect on Corynebacterium xerosis: growth inhibition in microplate, MIC", "type": "cell-based", "description": "• Test principle: contacting of decreasing concentrations of compounds under evaluation with an identical inoculum of microorganisms in a culture medium suitable for the growth of C. xerosis.\nThe dilutions of the compounds under evaluation are performed in agar at 1:1000, making it possible, for dispersible compounds under evaluation, to do away with the use of a solvent which could introduce bias in the evaluation of the compounds. The concentration range chosen was: 1%, 0.3%, 0.03% and 0.003%. Each concentration was tested in triplicate.\nTo ensure that the potential inhibitory activity was not associated with a pH effect, the pH of the culture medium was verified at the end of incubation.\nThe compound mixtures M0 and M2 were evaluated based on this protocol, along with n-octanoyl-5-salicylic acid (comparison)."}}}
{"smiles": "CCCCCCCC(=O)c1ccc(O)c(C(=O)O)c1", "note": "[N-octanoyl-5-salicylic acid, n-octanoyl-5-salicylic acid]", "values": [{"measurement": "% Variation incubated sweat intensity", "setting": "[1]; 0.3 mg in 1 mL of sweat, 35° C. for 24 hours, panel of sixteen people, vs incubated sweat alone", "value": "−57", "unit": "%"}, {"measurement": "unpleasant odor of incubated sweat (result in words)", "setting": "[1]; same protocol as Table 2", "value": "reduce the unpleasant odor of incubated sweat"}, {"measurement": "MIC C. xerosis", "setting": "Corynebacterium xerosis; incubation 24 to 48 hours, Optical Density 620 nm vs growth control, range tested 1%, 0.3%, 0.03%, 0.003%, triplicate", "value": "<0.003", "unit": "%"}, {"measurement": "growth of C. xerosis (result in words)", "setting": "Corynebacterium xerosis; same protocol as Table 1", "value": "inhibit the growth of C. xerosis"}]}
